{"source": "patent US20230085307A1", "about": "“PYRIDAZINONE COMPOUND AND HERBICIDE” (NISSAN CHEMICAL CORPORATION, priority 2019, published 2023)", "key": {"redroot pigweed": {"tested_on": "redroot pigweed", "test": "Test Example 4: herbicidal effect by soil treatment (Table 19, symbol N)", "format": "in vivo, redroot pigweed (Amaranthus retroflexus)", "settings": "amount of applied herbicide 320 g/ha", "in_short": "(§1)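 Emulsion of test compound, water-diluted to predetermined amount, sprayed on soil after sowing (seed depth ~1.5 cm, sterilized diluvial soil). Greenhouse, 25–30° C. Effect graded at three weeks post-spray.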"}, "Japanese bulrush [1]": {"tested_on": "Japanese bulrush", "test": "Test Example 2: herbicidal activity, application during weed generation under submerged conditions (Table 17, symbol B)", "format": "in vivo, Japanese bulrush (Schoenoplectus juncoides)", "settings": "AAH 320 g/ha; application during weed generation, submerged conditions", "in_short": "(§2)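 Herbicide emulsion, diluted with water to the chosen amount, is applied onto 4 cm floodwater over alluvial soil where the weeds were co-sown and raised at 25–30° C. Application timing: 1–2 leaves. Assessment: three weeks afterwards.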"}, "rice flat sedge": {"tested_on": "rice flat sedge", "test": "Test Example 3: herbicidal effect by foliage application, Wagner pot (Table 18, symbol E)", "format": "in vivo, rice flat sedge (Cyperus iria)", "settings": "amount of applied herbicide 320 g/ha", "in_short": "(§3)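 Plants were sown in alluvial soil held under 0.1–0.5 cm standing water and grown 14 days in a greenhouse at 25–30 °C. An emulsifiable formulation, water-diluted to the set dose, was then sprayed onto the foliage, and effects were scored three weeks later using previously defined criteria.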"}, "late watergrass [2]": {"tested_on": "late watergrass", "test": "Test Example 1: herbicidal activity, application before weed generation under submerged conditions (Table 16, symbol A)", "format": "in vivo, late watergrass (Echinochloa oryzicola)", "settings": "320 g/ha applied herbicide", "in_short": "(§4)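 Alluvial soil was flooded to 4 cm depth, weed seeds were sown mixed and 2.5-leaf rice seedlings were transplanted. On sowing day, the compound's emulsion, diluted in water to a set dose, was applied to the water surface. Plants grew at 25–30 °C and were scored 0–5 after three weeks.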"}, "barnyard grass [3]": {"tested_on": "barnyard grass", "test": "Test Example 3: herbicidal effect by foliage application, Wagner pot (Table 18, symbol H)", "format": "in vivo, barnyard grass (Echinochloa crus-galli)", "settings": "amount of applied herbicide 320 g/ha", "in_short": "as §3"}, "Chinese sprangletop": {"tested_on": "Chinese sprangletop", "test": "Test Example 3: herbicidal effect by foliage application, Wagner pot (Table 18, symbol D)", "format": "in vivo, chinese sprangletop (Leptochloa chinensis)", "settings": "amount of applied herbicide 320 g/ha", "in_short": "as §3"}, "green foxtail": {"tested_on": "green foxtail", "test": "Test Example 4: herbicidal effect by soil treatment (Table 19, symbol G)", "format": "in vivo, green foxtail (Setaria viridis)", "settings": "amount of applied herbicide 320 g/ha", "in_short": "as §1"}, "wild oat": {"tested_on": "wild oat", "test": "Test Example 4: herbicidal effect by soil treatment (Table 19, symbol I)", "format": "in vivo, wild oat (Avena fatua)", "settings": "amount of applied herbicide 320 g/ha", "in_short": "as §1"}, "lambsquarters": {"tested_on": "lambsquarters", "test": "Test Example 4: herbicidal effect by soil treatment (Table 19, symbol O)", "format": "in vivo, lambsquarters (Chenopodium album)", "settings": "amount of applied herbicide 320 g/ha", "in_short": "as §1"}, "late watergrass [4]": {"tested_on": "late watergrass", "test": "Test Example 2: herbicidal activity, application during weed generation under submerged conditions (Table 17, symbol A)", "format": "in vivo, late watergrass (Echinochloa oryzicola)", "settings": "AAH 320 g/ha; application during weed generation, submerged conditions", "in_short": "as §2"}, "blackgrass": {"tested_on": "blackgrass", "test": "Test Example 4: herbicidal effect by soil treatment (Table 19, symbol J)", "format": "in vivo, blackgrass (Alopecurus myosuroides)", "settings": "amount of applied herbicide 320 g/ha", "in_short": "as §1"}, "windgrass": {"tested_on": "windgrass", "test": "Test Example 4: herbicidal effect by soil treatment (Table 19, symbol L)", "format": "in vivo, windgrass (Apera spica-venti)", "settings": "amount of applied herbicide 320 g/ha", "in_short": "as §1"}, "Japanese bulrush [5]": {"tested_on": "Japanese bulrush", "test": "Test Example 1: herbicidal activity, application before weed generation under submerged conditions (Table 16, symbol B)", "format": "in vivo, Japanese bulrush (Schoenoplectus juncoides)", "settings": "320 g/ha applied herbicide", "in_short": "as §4"}, "barnyard grass [6]": {"tested_on": "barnyard grass", "test": "Test Example 4: herbicidal effect by soil treatment (Table 19, symbol H)", "format": "in vivo, barnyard grass (Echinochloa crus-galli)", "settings": "amount of applied herbicide 320 g/ha", "in_short": "as §1"}, "oval-leafed pondweed [7]": {"tested_on": "oval-leafed pondweed", "test": "Test Example 2: herbicidal activity, application during weed generation under submerged conditions (Table 17, symbol C)", "format": "in vivo, oval-leafed pondweed (Monochoria vaginalis)", "settings": "AAH 320 g/ha; application during weed generation, submerged conditions", "in_short": "as §2"}, "southern crabgrass": {"tested_on": "southern crabgrass", "test": "Test Example 4: herbicidal effect by soil treatment (Table 19, symbol F)", "format": "in vivo, southern crabgrass (Digitaria ciliaris)", "settings": "amount of applied herbicide 320 g/ha", "in_short": "as §1"}, "oval-leafed pondweed [8]": {"tested_on": "oval-leafed pondweed", "test": "Test Example 1: herbicidal activity, application before weed generation under submerged conditions (Table 16, symbol C)", "format": "in vivo, oval-leafed pondweed (Monochoria vaginalis)", "settings": "320 g/ha applied herbicide", "in_short": "as §4"}, "chickweed": {"tested_on": "chickweed", "test": "Test Example 4: herbicidal effect by soil treatment (Table 19, symbol P)", "format": "in vivo, common chickweed (Stellaria media)", "settings": "amount of applied herbicide 320 g/ha", "in_short": "as §1"}, "Italian ryegrass": {"tested_on": "Italian ryegrass", "test": "Test Example 4: herbicidal effect by soil treatment (Table 19, symbol K)", "format": "in vivo, Italian ryegrass (Lolium multiflorum)", "settings": "amount of applied herbicide 320 g/ha", "in_short": "as §1"}, "persian speedwell": {"tested_on": "persian speedwell", "test": "Test Example 4: herbicidal effect by soil treatment (Table 19, symbol R)", "format": "in vivo, Persian speedwell (Veronica persica)", "settings": "amount of applied herbicide 320 g/ha", "in_short": "as §1"}, "velvetleaf": {"tested_on": "velvetleaf", "test": "Test Example 4: herbicidal effect by soil treatment (Table 19, symbol M)", "format": "in vivo, velvetleaf (Abutilon theophrasti)", "settings": "amount of applied herbicide 320 g/ha", "in_short": "as §1"}}, "data": [{"smiles": "Cc1nn(C)c(=O)c(-c2c(-c3ccc(F)c(Cl)c3)sc3ccc(F)cc23)c1O", "note": "[2-352]", "values": [{"measurement": "herbicidal effect, N: redroot pigweed", "setting": "redroot pigweed", "value": "5 (Herbicidal rate of 90% or more (almost completely withered))"}, {"measurement": "herbicidal effect rating, B: Japanese bulrush", "setting": "Japanese bulrush [1]", "value": "2 (Herbicidal rate of 20% or more and less than 40%)"}, {"measurement": "herbicidal effect on E: rice flat sedge", "setting": "rice flat sedge", "value": "5 (Herbicidal rate of 90% or more (almost completely withered))"}, {"measurement": "Herbicidal effect on A: late watergrass (grade 0-5)", "setting": "late watergrass [2]", "value": "3 (Herbicidal rate of 40% or more and less than 70%)"}, {"measurement": "herbicidal effect on H: barnyard grass", "setting": "barnyard grass [3]", "value": "5 (Herbicidal rate of 90% or more (almost completely withered))"}, {"measurement": "herbicidal effect on D: Chinese sprangletop", "setting": "Chinese sprangletop", "value": "5 (Herbicidal rate of 90% or more (almost completely withered))"}, {"measurement": "herbicidal effect, G: green foxtail", "setting": "green foxtail", "value": "4 (Herbicidal rate of 70% or more and less than 90%)"}, {"measurement": "herbicidal effect, I: wild oat", "setting": "wild oat", "value": "0 (Herbicidal rate of 5% or less (almost no effect))"}, {"measurement": "herbicidal effect, O: lambsquarters", "setting": "lambsquarters", "value": "4 (Herbicidal rate of 70% or more and less than 90%)"}, {"measurement": "herbicidal effect rating, A: late watergrass", "setting": "late watergrass [4]", "value": "0 (Herbicidal rate of 5% or less (almost no effect))"}, {"measurement": "herbicidal effect, J: blackgrass", "setting": "blackgrass", "value": "0 (Herbicidal rate of 5% or less (almost no effect))"}, {"measurement": "herbicidal effect, L: windgrass", "setting": "windgrass", "value": "0 (Herbicidal rate of 5% or less (almost no effect))"}, {"measurement": "Herbicidal effect on B: Japanese bulrush (grade 0-5)", "setting": "Japanese bulrush [5]", "value": "2 (Herbicidal rate of 20% or more and less than 40%)"}, {"measurement": "herbicidal effect, H: barnyard grass", "setting": "barnyard grass [6]", "value": "3 (Herbicidal rate of 40% or more and less than 70%)"}, {"measurement": "herbicidal effect rating, C: oval-leafed pondweed", "setting": "oval-leafed pondweed [7]", "value": "0 (Herbicidal rate of 5% or less (almost no effect))"}, {"measurement": "herbicidal effect, F: southern crabgrass", "setting": "southern crabgrass", "value": "2 (Herbicidal rate of 20% or more and less than 40%)"}, {"measurement": "Herbicidal effect on C: oval-leafed pondweed (grade 0-5)", "setting": "oval-leafed pondweed [8]", "value": "2 (Herbicidal rate of 20% or more and less than 40%)"}, {"measurement": "herbicidal effect, P: chickweed", "setting": "chickweed", "value": "3 (Herbicidal rate of 40% or more and less than 70%)"}, {"measurement": "herbicidal effect, K: Italian ryegrass", "setting": "Italian ryegrass", "value": "4 (Herbicidal rate of 70% or more and less than 90%)"}, {"measurement": "herbicidal effect, R: persian speedwell", "setting": "persian speedwell", "value": "4 (Herbicidal rate of 70% or more and less than 90%)"}, {"measurement": "herbicidal effect, M: velvetleaf", "setting": "velvetleaf", "value": "3 (Herbicidal rate of 40% or more and less than 70%)"}]}]}
